According to PubChem BioAssay AID1645863 (Buhrlage Lab, Dana-Farber Cancer Institute and Novartis …, 2021):
Calls of active or inactive are those of the source. The rule behind the calls is not given here.

These compounds were tested against Ubiquitin carboxyl-terminal hydrolase 10 (Homo sapiens) (UniProt Q14694) (assay: ubiquitin-specific protease 10 DUB inhibitors, concentration-effect, biochemical, verification of primary screen actives (AID 1645863;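 note: potency values describe inhibition of USP10 cleavage of a fluorogenic ubiquitin substrate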)). Details: USP10 deubiquitinase enzymatic assay.
Chain of Ubiquitin carboxyl-terminal hydrolase 10 (Homo sapiens) (Q14694 whole entry, looked up): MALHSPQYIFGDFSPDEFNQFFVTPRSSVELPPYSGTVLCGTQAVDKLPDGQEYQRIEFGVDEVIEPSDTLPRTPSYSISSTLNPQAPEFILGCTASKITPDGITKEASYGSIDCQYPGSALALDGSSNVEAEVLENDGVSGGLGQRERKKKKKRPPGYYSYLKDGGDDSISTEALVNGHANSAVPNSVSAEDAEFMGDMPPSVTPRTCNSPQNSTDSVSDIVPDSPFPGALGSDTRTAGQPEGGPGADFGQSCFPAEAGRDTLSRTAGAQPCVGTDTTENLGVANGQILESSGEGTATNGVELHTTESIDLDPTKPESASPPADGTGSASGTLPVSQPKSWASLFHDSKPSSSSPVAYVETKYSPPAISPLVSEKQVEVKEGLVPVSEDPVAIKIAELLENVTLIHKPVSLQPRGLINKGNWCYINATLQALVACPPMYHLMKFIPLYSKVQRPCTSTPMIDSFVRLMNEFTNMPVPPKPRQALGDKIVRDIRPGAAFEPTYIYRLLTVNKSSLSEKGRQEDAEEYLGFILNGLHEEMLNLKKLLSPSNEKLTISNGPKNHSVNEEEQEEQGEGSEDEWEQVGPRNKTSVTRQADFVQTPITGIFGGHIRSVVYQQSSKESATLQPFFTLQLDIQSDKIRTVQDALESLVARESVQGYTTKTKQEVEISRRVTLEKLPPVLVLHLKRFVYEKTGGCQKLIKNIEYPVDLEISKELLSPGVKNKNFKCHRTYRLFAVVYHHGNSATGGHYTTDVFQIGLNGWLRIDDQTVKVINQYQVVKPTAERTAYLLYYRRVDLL

| SMILES | IC50 |
| --- | --- |
| CCN(Cc1ccccc1)C(=O)Cn1ccc2ccn(C)c2c1=O | > 40 µM (inactive) |
| O=C(NCCc1ccccc1)c1ccc2c(=O)n(Cc3ccco3)c(=O)n(Cc3cccc([N+](=O)[O-])c3)c2c1 | 8.37 µM |
| COc1ccc(C2NC(=O)NC(C)=C2C(=O)OCC2CCCCC2)cc1OC (stereo not given) | > 40 µM (inactive) |
| COc1cccc(NC(=O)Cn2cc(C(=O)c3ccc(C)cc3)c(=O)c3cc(Cl)ccc32)c1 | 11.2 µM |
| O=c1oc2c3c(c(Cl)cc2c2c1CCCC2)OCN(Cc1ccccc1)C3 | > 40 µM (inactive) |
| CN(C)S(=O)(=O)c1ccc(NC(=O)CN2CCCc3ccccc32)cc1 | > 40 µM (inactive) |
| CC(C)CC(=O)Nc1cc(F)c2nc(N3CCOCC3)ccc2c1 | > 40 µM (inactive) |
| O=C(Cn1nc2c3c4c(sc3ncn2c1=O)CCCCC4)Nc1ccc(Cl)cc1F | 10.9 µM |
| Cc1ncc(-c2ccc3c(c2)OCO3)c(-c2nccs2)n1 | > 40 µM (inactive) |
| COc1ccc([C@H]2Oc3cc(OC)cc(O)c3C(=O)[C@@H]2[C@@H]2C(=O)c3c(O)cc(O)cc3O[C@H]2c2ccc(OC)cc2)cc1 | 18.5 µM |
| CCCCCCCCCc1cc(OC(=O)c2c(CCCCCCCCC)cc(O)cc2O[C@@H]2O[C@H](CO)[C@@H](O)[C@H](O)[C@H]2O)cc(O)c1C(=O)O | 3.43 µM |
| Cc1nnc(NC(=O)C2CC(=O)N(CCc3ccc(F)cc3)C2)s1 (stereo not given) | > 40 µM (inactive) |
| CC1(C)Cc2c(c(-c3ccco3)nc3sc4c(SCCCc5ccccc5)ncnc4c23)CO1 | 29.1 µM |
| Cc1ccc2[nH]c3c(=O)n(Cc4ccc(N(C)C)cc4)cnc3c2c1 | 19.5 µM |
| COc1ccc(NC(=O)c2cc(-c3cccnc3)n[nH]2)cc1Cl | 28.5 µM |
| O=C(c1cc(Cl)c(Cl)[nH]1)c1cc(Cl)cc(Cl)c1O | 15.2 µM |
| COCC(=O)N1CCC(n2c(C3CC3)nc3sc(C)c(C)c3c2=O)CC1 | > 40 µM (inactive) |
| O=C(CSc1nc(=O)n(Cc2ccncc2)c2c1CCC2)NCCc1ccccc1 | > 40 µM (inactive) |
| O=C(Nc1ccc(C(F)(F)F)cc1)C1CC(=O)N(c2ccc3c(c2)OCCO3)C1 (stereo not given) | > 40 µM (inactive) |

Second part, the compound after the results:

| IC50 | SMILES |
| --- | --- |
| > 40 µM (inactive) | Cc1ccccc1Cn1c(=O)n(CC2CCC(C(=O)NC3CCCC3)CC2)c(=O)c2ccccc21 (stereo not given) |
| 36.4 µM | C[C@H](NC(=O)Cc1ccccc1F)c1nc2cc(-c3ccccc3F)ncn2n1 |
| 15.8 µM | Cc1nc(-c2noc(-c3cccc(F)c3)n2)cn1CC(=O)Nc1ccccc1 |
| > 40 µM (inactive) | CCOc1ccc(-c2noc(-c3nn(-c4cccc(OC)c4)ccc3=O)n2)cc1 |
| > 40 µM (inactive) | Cc1ccc(NC(=O)COc2ccccc2/C=C2/NC(=O)N(Cc3ccc(F)cc3)C2=O)cc1 |
| 28.4 µM | Cc1cc(=O)n(CC(=O)Nc2ccccc2C)c(Nc2ccc(F)cc2)n1 |
| 34.1 µM | Cc1cccc(N2C(=O)/C(=C\c3cc(C#N)n(C)c3C)c3ccccc3C2=O)c1 |
| 15.6 µM | COc1ccccc1-c1nc(-c2cn(-c3ccc(F)cc3)nn2)no1 |
| > 40 µM (inactive) | Cc1ccc(CC(=O)Nc2ccc(C)cc2-c2n[nH]c(C3CC3)n2)cc1 |
| > 40 µM (inactive) | Fc1cccc(Nc2nc(-c3ccccn3)nc3ccccc23)c1 |
| 19.8 µM | COc1cccc(-n2cnc3cc(C(=O)NCCc4ccccc4)ccc3c2=O)c1 |
| 10.2 µM | O=C1Nc2ccccc2C(=O)C1C(c1ccc(Cl)cc1)C1C(=O)Nc2ccccc2C1=O (stereo not given) |
| inactive | N=C1/C(=C/c2cn(Cc3ccccc3F)c3ccccc23)C(=O)N=C2SC(C(F)(F)F)=NN12 |
| > 40 µM (inactive) | c1cncc(-c2cnc3sc(NCc4ccc5c(c4)OCO5)nn23)c1 |
| 26.4 µM | Cc1cccc(C)c1NC(=O)CN1C(=O)CC(c2ccccc2)=Nc2ccccc21 |
| > 40 µM (inactive) | CCc1ccc(S(=O)(=O)c2cn(CC(=O)Nc3ccccc3)c3ccccc3c2=O)cc1 |
